Test results as given in ChEMBL document CHEMBL4433223, “Treatment of Prostate Cancers and Kennedy's Disease by PROTAC-Androgen Receptor Degradation” (ACS Med Chem Lett, 2019).

How the values were obtained:
[1] = target: T1, von Hippel-Lindau disease tumor suppressor/Androgen receptor (Homo sapiens, UniProt P10275+P40337); experiment: Protac activity against VHL/AR in human LNCAP cells assessed as induction of AR degradation incubated for 24 hrs by ELISA; type: cell-based
Target sequence in this assay (P10275 whole entry): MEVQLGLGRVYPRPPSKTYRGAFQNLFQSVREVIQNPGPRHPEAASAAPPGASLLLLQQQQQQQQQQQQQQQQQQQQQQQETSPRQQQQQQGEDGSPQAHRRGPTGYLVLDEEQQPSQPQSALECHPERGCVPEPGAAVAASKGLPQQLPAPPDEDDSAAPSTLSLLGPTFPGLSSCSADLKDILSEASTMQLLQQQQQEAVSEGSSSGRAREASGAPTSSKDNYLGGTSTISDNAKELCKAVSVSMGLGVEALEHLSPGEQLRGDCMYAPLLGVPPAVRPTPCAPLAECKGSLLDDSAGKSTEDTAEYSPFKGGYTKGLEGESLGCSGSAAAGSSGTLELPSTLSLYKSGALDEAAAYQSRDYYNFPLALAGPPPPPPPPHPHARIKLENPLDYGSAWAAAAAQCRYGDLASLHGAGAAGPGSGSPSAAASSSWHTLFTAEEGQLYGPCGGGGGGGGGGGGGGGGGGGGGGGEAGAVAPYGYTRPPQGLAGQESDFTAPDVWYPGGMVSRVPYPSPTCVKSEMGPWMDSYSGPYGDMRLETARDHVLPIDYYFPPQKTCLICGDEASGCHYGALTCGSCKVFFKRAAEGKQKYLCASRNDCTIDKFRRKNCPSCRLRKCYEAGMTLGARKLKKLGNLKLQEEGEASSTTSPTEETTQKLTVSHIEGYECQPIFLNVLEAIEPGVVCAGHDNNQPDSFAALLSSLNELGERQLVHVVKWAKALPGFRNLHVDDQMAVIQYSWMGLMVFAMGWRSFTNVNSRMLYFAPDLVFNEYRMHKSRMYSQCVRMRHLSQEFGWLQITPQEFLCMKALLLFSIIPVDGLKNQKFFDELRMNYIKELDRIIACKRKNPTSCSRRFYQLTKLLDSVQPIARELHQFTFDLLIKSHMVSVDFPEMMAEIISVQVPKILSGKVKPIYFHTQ
Target sequence in this assay (P40337 whole entry): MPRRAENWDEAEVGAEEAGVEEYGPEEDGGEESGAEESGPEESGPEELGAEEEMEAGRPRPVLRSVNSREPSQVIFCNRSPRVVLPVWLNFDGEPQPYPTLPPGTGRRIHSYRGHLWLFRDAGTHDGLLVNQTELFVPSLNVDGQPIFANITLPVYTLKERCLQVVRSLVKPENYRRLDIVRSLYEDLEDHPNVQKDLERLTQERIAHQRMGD

[2] = target: T1, von Hippel-Lindau disease tumor suppressor/Androgen receptor; experiment: Protac activity against VHL/AR in human LNCAP cells assessed as induction of AR degradation incubated for 24 hrs by ELISA relative to untreated control; type: cell-based
Target sequence in this assay (P10275 whole entry, looked up): as the sequence (P10275 whole entry) above
Target sequence in this assay (P40337 whole entry, looked up): as the sequence (P40337 whole entry) above

[3] = AUC (0 to 24 hrs) in CD1 mouse at 10 mg/kg, sc by LC/MS/MS analysis; type: ADME, organism-based; design: dose 10 mg/kg, time < 24 hr, route subcutaneous; conditions: in vivo
[4] = target: T1, von Hippel-Lindau disease tumor suppressor/Androgen receptor; experiment: Protac activity against VHL/AR in human VCAP cells assessed as induction of AR degradation incubated for 24 hrs by ELISA relative to untreated control; type: cell-based
Target sequence in this assay (P10275 whole entry, looked up): as the sequence (P10275 whole entry) above
Target sequence in this assay (P40337 whole entry, looked up): as the sequence (P40337 whole entry) above

[5] = Cmax in CD1 mouse at 10 mg/kg, sc by LC/MS/MS analysis; type: ADME, organism-based; design: dose 10 mg/kg, route subcutaneous; conditions: in vivo
[6] = target: T1, von Hippel-Lindau disease tumor suppressor/Androgen receptor; experiment: Protac activity against VHL/AR in human VCAP cells assessed as induction of AR degradation incubated for 24 hrs by ELISA; type: cell-based
Target sequence in this assay (P10275 whole entry): as the sequence (P10275 whole entry) above
Target sequence in this assay (P40337 whole entry): as the sequence (P40337 whole entry) above

Row | SMILES | DC50 [1] | Emax [2] | AUC(0-t) at 24 h [3] | Emax [4] | Cmax [5] | DC50 [6]
1 | CC(C)(C)[C@H](NC(=O)COCCCCCOc1ccc(C(=O)N[C@H]2C(C)(C)[C@H](Oc3ccc(C#N)c(Cl)c3)C2(C)C)cc1)C(=O)N1C[C@H](O)C[C@H]1C(=O)NCc1ccc(-c2cncs2)cc1 | ≤ 50 nM | > 71% | 15600 to 40200 ng·h/mL |  |  | 
2 | Cc1ncsc1-c1ccc(CNC(=O)[C@@H]2C[C@@H](O)CN2C(=O)[C@@H](NC(=O)COCCCOCCN2CCC(c3ccc(N4C(=S)N(c5ccc(C#N)c(C(F)(F)F)c5)C(=O)C4(C)C)cc3)CC2)C(C)(C)C)cc1 | ≤ 501 nM | 51 to 70% | 15600 to 40200 ng·h/mL | 26 to 50% |  | 
3 | Cc1ncsc1-c1ccc(CNC(=O)[C@@H]2C[C@@H](O)CN2C(=O)[C@@H](NC(=O)COCCc2ccc(-c3ccc(C(=O)N[C@H]4C(C)(C)[C@H](Oc5ccc(C#N)c(Cl)c5)C4(C)C)cc3)cc2)C(C)(C)C)cc1 | ≤ 50 nM | > 71% | 15600 to 40200 ng·h/mL |  | 1530 ng/mL | 
4 | Cc1ncsc1-c1ccc(CNC(=O)[C@@H]2C[C@@H](O)CN2C(=O)[C@@H](NC(=O)COCCCOCCCCCOc2ccc(N3C(=O)N(c4ccc(C#N)c(C(F)(F)F)c4)C(=O)C3(C)C)cc2)C(C)(C)C)cc1 | ≤ 50 nM | > 71% | 15600 to 40200 ng·h/mL | 51 to 70% | 1150 ng/mL | ≤ 50 nM
5 | Cc1ncsc1-c1ccc([C@H](C)NC(=O)[C@@H]2C[C@@H](O)CN2C(=O)[C@@H](NC(=O)COCCCCCOc2ccc(C(=O)N[C@H]3C(C)(C)[C@H](Oc4ccc(C#N)c(Cl)c4)C3(C)C)cc2)C(C)(C)C)cc1 | ≤ 50 nM | > 71% | 15600 to 40200 ng·h/mL |  | 1900 ng/mL | 
6 | Cc1ncoc1-c1ccc(CNC(=O)[C@@H]2C[C@@H](O)CN2C(=O)[C@@H](NC(=O)COCc2ccc(OC(=O)N[C@H]3C(C)(C)[C@H](Oc4ccc(C#N)c(Cl)c4)C3(C)C)cc2)C(C)(C)C)cc1 | ≤ 50 nM | > 71% | 15600 to 40200 ng·h/mL |  |  | 
